Source: patent US20250228851A1, “ALLOSTERIC INHIBITOR COMPOUNDS FOR OVERCOMING CANCER RESISTANCE” (priority 2021, published 2025)

Experiments:
BV173 = assay: Proliferation by dye exclusion after three days, BV173; type: cell-based, human
Procedure: (§1) FIG. 3. […] Cells were exposed to increasing concentration of 2.5, 5 and 10 μM of Compound 16. The negative control cell lines Ph− ALL HP was irresponsive to increasing concentration of Compound 16 (up to 10 μM). […] All four cell lines were plated in duplicates at the indicated concentrations, and proliferation was assessed after three days by dye exclusion of viable cells. […] The sensitivity of Ph+ cells to Compound 16 underlines the involvement of BCR-ABL in the antiproliferative mechanism. Death induction of BV173 cells is well taken as an indication of the ability of such group of compounds to overcome resistance that is originated in non-mutational grounds. However, the ability overcome the resistant T315I-BCR-ABL mutant, as shown in the dose-dependent manner of KÖ (circles), might be indicative for a non-ATP competitive mechanism of action.

[1] = test system: PH (Ph+ AKI sensitive culture); assay: Proliferation by dye exclusion after three days, PH; type: cell-based, human
Procedure: as §1

KÖ (Ph+T315I-BCR-ABL) = assay: Proliferation by dye exclusion after three days, KÖ; type: cell-based, human; conditions: KÖ, 2.5, 5 and 10 μM
Procedure: as §1

HP (Ph− ALL cultures) = assay: Proliferation by dye exclusion after three days, HP; type: cell-based, human; conditions: HP, 2.5, 5 and 10 μM
Procedure: as §1

[2] = test system: p185-Ba/F3 (WT-Ba/F3-p185-BCR-ABL); assay: Proliferation by trypan blue exclusion, p185-Ba/F3; type: cell-based, murine; conditions: p185-Ba/F3, 1.0, 2.0 and 5.0 μM
Procedure: • 1. Ba/F3 cells were obtained from the German Collection of Microorganisms and Cell Cultures (DSMZ, Braunschweig, Germany) and maintained in RPMI 1640 medium supplemented with 10% fetal calf serum (Invitrogen) containing 10 ng/ml of interleukin-3 (Cell Concepts, Umkirch, Germany). Ecotropic Phoenix cells and Rat-1 cells were cultured in Dulbecco's modified Eagle's medium supplemented with 10% fetal calf serum. GNF-2 (Sigma-Adrich, Steinheim, Germany) was dissolved in dimethyl sulfoxide and added at a final concentration of […]. Cell growth was assessed by dye exclusion using Trypan blue. Proliferation was assessed using the XTT proliferation kit (Roche, Mannheim, Germany), according to the manufacturer's instructions. • 2. Ba/F3: IL-3 dependent lymphatic murine pro B cell line. […]
FIGS. 4A and 4B. […] All cell lines were treated with the indicated concentrations of Compound 16 for total period of five days and proliferation was determined by trypan blue exclusion of viable cells. […] For factor-independent growth, the number of viable cells was determined at day 3 by trypan blue dye exclusion.

[3] = test system: Ba/F3 cells expressing T315I-p185-BCR-ABL; assay: XTT cell viability / proliferation, Ba/F3 expressing T315I-p185-BCR-ABL; type: cell-based, murine
Procedure: • 1. Ba/F3 cells were obtained from the German Collection of Microorganisms and Cell Cultures (DSMZ, Braunschweig, Germany) and maintained in RPMI 1640 medium supplemented with 10% fetal calf serum (Invitrogen) containing 10 ng/ml of interleukin-3 (Cell Concepts, Umkirch, Germany). Ecotropic Phoenix cells and Rat-1 cells were cultured in Dulbecco's modified Eagle's medium supplemented with 10% fetal calf serum. GNF-2 (Sigma-Adrich, Steinheim, Germany) was dissolved in dimethyl sulfoxide and added at a final concentration of […]. Cell growth was assessed by dye exclusion using Trypan blue. Proliferation was assessed using the XTT proliferation kit (Roche, Mannheim, Germany), according to the manufacturer's instructions. • 2. Ba/F3: IL-3 dependent lymphatic murine pro B cell line. Ba/F3 cells expressing either p185-BCR-ABL1 (p185-BCR-ABL-Ba/F3) or p210-BCR-ABL (p210-BCR-ABL-Ba/F3). p185-BCR-ABL1 (activated kinases substitute for the IL-3 signaling and therefore render the cells IL3 independent. Ba/F3 cells expressing either p185-BCR-ABL (p185-Ba/F3) or p210-BCR-ABL (p210-Ba/F3). Ba/F3 cells obtained from the German Collection of Microorganisms and Cell Cultures (DSMZ, Braunschweig, Germany). • 3. Mutant transduced Ba/F3 cells (T315I-p185-BCR-ABL1 or T315I-p210-BCR-ABL1): Ba/F3 cells expressing either the mutated forms T315I-p185-BCR-ABL1 or T315I-p210-BCR-ABL1. • 4. WT-Sup-B15: A Ph+ ALL cell line harboring the p185-BCR-ABL. Sup-B15: established from the bone marrow of a child with acute lymphoblastic leukemia (B cell precursor ALL) in second relapse in 1984; described in the literature to carry the ALL-variant (m-BCR) of the BCR-ABL1 fusion gene (e1-a2) correct, because it results in the p185-BCR-ABL version. • 5. […] V617FJAK2 HEL: (Human erythroleukemia) is a growth factor independent erythroleukemic cell line established from the bone marrow of a patient with relapsed Hodgkin disease after autologous bone marrow transplantation (Martin P & Papayannopoulou T: Science 1982; 216:1233-1235). HEL cells display a block in differentiation at the level of common erythroid-megakaryocytic progenitor and have been commonly used as a model to study erythroid and megakaryocytic differentiation. • 7. Jurkat: an immortalized human T lymphocyte first derived from the peripheral blood of a child suffering from T cell leukemia. Jurkat cells are used to study acute T cell leukemia, T cell signaling, and the expression of various chemokine receptors susceptible to viral entry, particularly HIV.
FIGS. 1A and 1B: Effects of Compound 16 on Ba/F3 cells expressing either p185-BCR-ABL or T315I-p185-BCR-ABL. Cells were exposed to increasing concentration of Compound 16 [empty vehicle (0.0 μM+IL3), 2.5, 5.0 and 10.0 μM]. […] Cell viability (CV) was assessed using the XTT method as described in the experimental part. The means±SD of triplicates from one representative experiment out of three performed are given.
FIGS. 7A-C: Effects of Compound 16 on of Ba/F3 cells expressing WT-p185-BCR-ABL (FIG. 7A) and the mutant gatekeeper T315I-p185-BCR-ABL (FIG. 7B) by Compound 16. Cells were exposed to increasing concentrations of Compound 16.

[4] = test system: PINCO transfected Ba/F3 cells; assay: XTT cell viability, Ba/F3 transduced with empty vector (PINCO); type: cell-based, murine; conditions: increasing concentration up to 10 μM
Procedure: • 1. Ba/F3 cells were obtained from the German Collection of Microorganisms and Cell Cultures (DSMZ, Braunschweig, Germany) and maintained in RPMI 1640 medium supplemented with 10% fetal calf serum (Invitrogen) containing 10 ng/ml of interleukin-3 (Cell Concepts, Umkirch, Germany). Ecotropic Phoenix cells and Rat-1 cells were cultured in Dulbecco's modified Eagle's medium supplemented with 10% fetal calf serum. GNF-2 (Sigma-Adrich, Steinheim, Germany) was dissolved in dimethyl sulfoxide and added at a final concentration of […]. Cell growth was assessed by dye exclusion using Trypan blue. Proliferation was assessed using the XTT proliferation kit (Roche, Mannheim, Germany), according to the manufacturer's instructions. • 2. Ba/F3: IL-3 dependent lymphatic murine pro B cell line. Ba/F3 cells expressing either p185-BCR-ABL1 (p185-BCR-ABL-Ba/F3) or p210-BCR-ABL (p210-BCR-ABL-Ba/F3). p185-BCR-ABL1 (activated kinases substitute for the IL-3 signaling and therefore render the cells IL3 independent. Ba/F3 cells expressing either p185-BCR-ABL (p185-Ba/F3) or p210-BCR-ABL (p210-Ba/F3). Ba/F3 cells obtained from the German Collection of Microorganisms and Cell Cultures (DSMZ, Braunschweig, Germany). • 3. Mutant transduced Ba/F3 cells (T315I-p185-BCR-ABL1 or T315I-p210-BCR-ABL1): Ba/F3 cells expressing either the mutated forms T315I-p185-BCR-ABL1 or T315I-p210-BCR-ABL1. • 4. WT-Sup-B15: A Ph+ ALL cell line harboring the p185-BCR-ABL. Sup-B15: established from the bone marrow of a child with acute lymphoblastic leukemia (B cell precursor ALL) in second relapse in 1984; described in the literature to carry the ALL-variant (m-BCR) of the BCR-ABL1 fusion gene (e1-a2) correct, because it results in the p185-BCR-ABL version. • 5. […]
FIG. 11: Antiproliferative effect of Compound 16 on PINCO transfected Ba/F3 cells. […] Proliferation status was determined by the metabolic activity of cells given by the reduction rate of XTT to formazan. […]

COc1ccc(C(=O)N2CCN(c3cc(Nc4ccc(OC(F)(F)F)cc4)ncn3)CC2)cc1OC [Compound 16]
IC50 (BV173): 2500 nM | IC50 [1]: ~2100 nM | response (in words) (KÖ (Ph+T315I-BCR-ABL)): inhibited with variable degrees | response (in words) (HP (Ph− ALL cultures)): irresponsive | effect on proliferation (in words) [2]: inhibits the proliferation | RF (T315I-p185 versus p185-Ba/F3) ([3]; 1 μM, 48 hr): 1.07 | cells inhibited ([3]; 1 μM, within the first 24 hours): not affected | resistance conferred by T315I mutant versus p185-Ba/F3 ([3]; 2 μM, T=48 hr): 1.84 fold | viable cells ([3]; 2 μM, T=48 hr): 50.71% | time to complete inhibition ([3]; 10 μM): ~96 h | cell proliferation affected ([3]; 5 and 10 μM): ~80% | antiproliferative response (in words) [4]: No effect
